Results taken from patent publication US20200282010A1, “IMMUNOGENIC COMPOSITIONS AND USES THEREFOR” (Epiaxis Therapeutics Pty Ltd, priority 2017, published 2020).

Experiments:
PKC-β1 = biological target: T1, PKC-β1 (Homo sapiens, UniProt P05771); test: Nuclear localization of PKC-β1 (Fn/c, immunofluorescence), specificity; type: cell-based; conditions: MCF7 breast cancer cell line; FIG. 1D
T1 construct: endogenous in cells; host or cells: MCF7
From the text: FIG. 1 is a graphical, schematic and photographic representation showing that PKC-θ can be targeted for therapeutic intervention. A) Depicts the strength of binding of recombinant purified His6-PKC-θ to increasing concentrations of different subunits and subunit combinations (α2, α2β1, and β1) of the importin α/β heterodimer nuclear transport receptor using an AlphaScreen® binding assay as described in Wagstaff et al. (2011. Journal of Biomolecular Screening 16 (2):192-200). B-C) Depicts protein structure of PKC-θ indicating binding locations for the PKC-θ peptide inhibitor, PKCθi (RKEIDPPFRPKVK), including the nuclear localization sequence (NLS) of PKC-θ. D) The specificity of PKCθi was examined on cells treated with this peptide inhibitor. Cells were screened with primary antibodies to PKC-θ (T538p), PKC-β2, PKC-β1, PKC-α, PKC-ε and PKC-γ. The nuclear to cytoplasmic fluorescence ratio (Fn/c) using the equation: Fn/c=(Fn−Fb)/(Fc−Fb), where Fn is nuclear fluorescence, Fc is cytoplasmic fluorescence, and Fb is background fluorescence was used to determine the impact on nuclear translocation/localization. […] EC^50 of inhibitors calculated using GraphPad PRISM software. F) The PKC-θ kinase activity was measured using the PKC kinase activity kit from ENZO life sciences and recombinant PKC-θ; C27 is an inhibitor of PKC-θ kinase activity, which is disclosed in Jimenez et al. (2013. […]

[1] = tested on: PBMC cells isolated from CR and PD melanoma liquid biopsies; test: RT-PCR expression of IL-2, IFN-γ and TNF-α in PBMCs from melanoma patient liquid biopsies; type: cell-based, human; conditions: FIG. 2B
Protocol: FIG. 2 is a photographic and graphical representation depicting a PKC-θ resistance signature in CD8^+ T-cells from BRAF negative melanoma patients. A) Melanoma patient formalin-fixed paraffin-embedded (FFPE) tissue from primary tumor baseline biopsy for either a complete response (CR), stable disease (SD) or progressive disease (PD) was processed by 3D high resolution microscopy using a Leica Bond RX Stainer. FFPE tissues were fixed and immunofluorescence microscopy was performed probing with primary antibodies to anti-PD1, anti-PKC-θ (T538p) and anti-CD8 with DAPI. Representative images for each dataset are shown. Graph plots represent the TCFI values for CD8, TNFI for PKC-θ and TCFI for PD1 measured using ImageJ minus background (N=40 cells per a patient sample). B) Peripheral blood mononuclear cells (PBMCs) isolated from melanoma patient liquid biopsies were pre-clinically screened with either control or PKCθi nuclear peptide inhibitor. PBMC Samples were screened in triplicate for expression of IL-2, IFN-γ and TNF-α. C) Melanoma patient FFPE tissue from primary tumor baseline biopsy for CR, SD and two PD cohorts defined by responder or resistant to Dual Immunotherapy was processed by 3D high resolution microscopy using a Leica Bond RX Stainer. FFPE tissues were fixed and immunofluorescence microscopy was performed probing with primary antibodies to anti-PD1, anti-PKC-θ (T538p), anti-CD8 and anti-ZEB1 with DAPI. Representative images for each dataset are shown. Graph plots represent the TCFI values for CD8, TNFI for PKC-θ and TNFI for ZEB1 measured using ImageJ minus background (N=40 cells per a patient sample).
IL-2, IFN-γ and TNF-α are markers of T-cell activation and effector capacity whereas ZEB1 is a negative regulator of T-cell responses and is linked with T-cell effector inhibition as well as cancer progression. Accordingly, the expression of these biomarkers was investigated in the context of modulating the PKC-θ pathway. Employing RT-PCR, the present inventors profiled expression of the effect of PKCθi in PBMC cells isolated from CR and PD melanoma liquid biopsies.

T1 sequence (P05771 whole entry): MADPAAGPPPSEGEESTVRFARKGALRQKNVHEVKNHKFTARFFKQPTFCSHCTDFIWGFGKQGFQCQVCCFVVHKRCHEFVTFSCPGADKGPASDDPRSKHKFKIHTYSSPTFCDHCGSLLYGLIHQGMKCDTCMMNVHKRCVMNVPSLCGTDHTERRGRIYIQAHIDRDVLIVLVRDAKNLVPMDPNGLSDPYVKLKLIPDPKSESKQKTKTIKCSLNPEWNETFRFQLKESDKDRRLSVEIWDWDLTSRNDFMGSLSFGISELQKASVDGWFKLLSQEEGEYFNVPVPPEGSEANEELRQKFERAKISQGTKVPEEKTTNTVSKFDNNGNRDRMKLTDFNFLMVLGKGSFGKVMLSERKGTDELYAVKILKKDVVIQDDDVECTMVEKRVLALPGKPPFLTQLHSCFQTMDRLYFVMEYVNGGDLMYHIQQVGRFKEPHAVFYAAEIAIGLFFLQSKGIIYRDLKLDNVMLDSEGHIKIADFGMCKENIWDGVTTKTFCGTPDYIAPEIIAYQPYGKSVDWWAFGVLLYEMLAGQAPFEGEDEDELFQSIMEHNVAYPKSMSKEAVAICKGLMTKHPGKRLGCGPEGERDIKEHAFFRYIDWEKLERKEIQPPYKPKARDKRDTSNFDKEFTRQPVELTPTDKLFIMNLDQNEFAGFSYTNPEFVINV

nuclear localization of PKC-β1 (PKC-β1): no effect
Sequence: RKEIDPPFRPKVK [PKCθi]
expression of IFN-γ ([1]; CR patient cohort): some induction
expression of IL-2 ([1]; CR patient cohort): some induction
expression of TNF-α ([1]; CR patient cohort): some induction
expression of IFN-γ ([1]; PD patient cohort): significantly induced
expression of IL-2 ([1]; PD patient cohort): significantly induced
expression of TNF-α ([1]; PD patient cohort): significantly induced
